ChEMBL document CHEMBL1149920, “Synthesis and biological evaluation of an alkenyldiarylmethane (ADAM) which acts as a novel non-nucleoside HIV-1 reverse transcriptase inhibitor” (Bioorg Med Chem Lett, 1995)
The source made the active and inactive calls. The rule behind the calls is not given here.

Experiments:
PBL [1] = assay: Concentration that provides 50% protection in the PBL cells infected with HIV-1 VIHU strain; assay type: functional, cell-based; settings: Homo sapiens
MO/Mphi [2] = assay: Concentration that results in 50% death of MO/Mphi cells infected with HIV-1 ADA strain; no toxicity was observed; assay type: functional, cell-based; settings: Homo sapiens
MT4 [3] = assay: Concentration that provides 50% protection in the MT-4 cells infected with SIV strain; assay type: functional, cell-based; settings: Homo sapiens
PBL [4] = assay: Concentration that results in 50% death of PBL cells infected with HIV-1 BAKI strain; no toxicity was observed; assay type: functional, cell-based; settings: Homo sapiens
MT4 [5] = assay: Concentration that provides 50% protection in the MT-4 cells infected with pyridinone-resistant HIV-1 A17 strain; assay type: functional, cell-based; settings: Homo sapiens
MT4 [6] = assay: Concentration that provides 50% protection in the MT-4 cells infected with nevirapine-resistant HIV-1 N119 strain; assay type: functional, cell-based; settings: Homo sapiens
PBL [7] = assay: Concentration that provides 50% protection in the PBL cells infected with HIV-1 WEJO strain; assay type: functional, cell-based; settings: Homo sapiens
MT4 [8] = assay: Concentration that results in 50% death of MT-4 cells infected with SIV strain; no toxicity was observed; assay type: functional, cell-based; settings: Homo sapiens
MT4 [9] = assay: Concentration that provides 50% protection in the MT-4 cells infected with AZT-resistant HIV-1 6S strain; assay type: functional, cell-based; settings: Homo sapiens
CEM-SS = assay: Concentration that provides 50% protection in the CEM-SS cells infected with HIV-2 strain; IA means inactive; assay type: functional, cell-based; settings: Homo sapiens
MO/Mphi [10] = assay: Concentration that provides 50% protection in the MO/Mphi cells infected with HIV-1 ADA strain; assay type: functional, cell-based; settings: Homo sapiens
MT4 [11] = assay: Concentration that results in 50% death of MT-4 cells infected with Nevirapine resistant HIV-1 N119 strain; no toxicity was observed; assay type: functional, cell-based; settings: Homo sapiens
PBL [12] = assay: Concentration that results in 50% death of PBL cells infected with HIV-1 VIHU strain; no toxicity was observed; assay type: functional, cell-based; settings: Homo sapiens
MT4 [13] = assay: Concentration that provides 50% protection in the MT-4 cells infected with AZT-resistant HIV-1 6R strain; assay type: functional, cell-based; settings: Homo sapiens
MT4 [14] = assay: Concentration that results in 50% death of MT-4 cells infected with HIV-1 6S strain; no toxicity was observed; assay type: functional, cell-based; settings: Homo sapiens
MT4 [15] = assay: Concentration that results in 50% death of MT-4 cells infected with AZT resistant HIV-1 6R strain; no toxicity was observed; assay type: functional, cell-based; settings: Homo sapiens
PBL [16] = assay: Concentration that provides 50% protection in the PBL cells infected with HIV-1 BAKI strain; assay type: functional, cell-based; settings: Homo sapiens
MO/Mphi [17] = assay: Concentration that results in 50% death of MO/Mphi cells infected with HIV-1 Ba-L strain; no toxicity was observed; assay type: functional, cell-based; settings: Homo sapiens
MT4 [18] = assay: Concentration that results in 50% death of MT-4 cells infected with HIV-1 IIIB strain; no toxicity was observed; assay type: functional, cell-based; settings: Homo sapiens
[19] = biological target: Human immunodeficiency virus type 1 reverse transcriptase (Human immunodeficiency virus 1, UniProt Q72547); assay: Inhibitory activity against HIV-1 reverse transcriptase
MT4 [20] = assay: Concentration that provides 50% protection in the MT-4 cells infected with HIV-1 IIIBstrain; assay type: functional, cell-based; settings: Homo sapiens
PBL [21] = assay: Concentration that results in 50% death of PBL cells infected with HIV-1 WEJO strain; no toxicity was observed; assay type: functional, cell-based; settings: Homo sapiens
MO/Mphi [22] = assay: Concentration that provides 50% protection in the MO/Mphi cells infected with HIV-1 Ba-L strain; assay type: functional, cell-based; settings: Homo sapiens
MT4 [23] = assay: Concentration that results in 50% death of MT-4 cells infected with pyridinone-resistant HIV-1 A17 strain; no toxicity was observed; assay type: functional, cell-based; settings: Homo sapiens

SMILES: CCCCCC=C(c1cc(Br)c(OC)c(C(=O)OC)c1)c1cc(Br)c(OC)c(C(=O)OC)c1
- EC50 (PBL [1]): 24.9 µM
- IC50 (MO/Mphi [2]): > 200 µM
- EC50 (MT4 [3]): 136 µM
- IC50 (PBL [4]): > 100 µM
- EC50 (MT4 [5]): 14 µM
- EC50 (MT4 [6]): 151 µM
- EC50 (PBL [7]): 10.2 µM
- IC50 (MT4 [8]): > 200 µM
- EC50 (MT4 [9]): 0.56 µM
- IA (CEM-SS): inactive
- EC50 (MO/Mphi [10]): 1.85 µM
- IC50 (MT4 [11]): > 200 µM
- IC50 (PBL [12]): > 100 µM
- EC50 (MT4 [13]): 6 µM
- IC50 (MT4 [14]): > 200 µM
- IC50 (MT4 [15]): > 200 µM
- EC50 (PBL [16]): 15.2 µM
- IC50 (MO/Mphi [17]): > 200 µM
- IC50 (MT4 [18]): > 200 µM
- IC50 [19]: 0.38 µM
- EC50 (MT4 [20]): 16 µM
- IC50 (PBL [21]): > 100 µM
- EC50 (MO/Mphi [22]): 5.5 µM
- IC50 (MT4 [23]): > 200 µM
